Laboratory results taken from patent US20070025986A1, “Modulation of HCN channels by second messengers” (priority 2003, published 2007).
Where two headings read alike, the source gives them in different places. No end group written: not given here.

What was measured:
[1] = tested on: native pacemaker channels (IH); conditions: cited from earlier work
HCN1 channel = assay: Two microelectrode voltage clamp (2MEV) of HCN1 and HCN1 mutants expressed in Xenopus oocytes; format: cell-based, mouse; conditions: forskolin 10 μM, 30 min, SQ-22536 300 μM, 3 hr
[2] = ADn: Thalamic anterior dorsal relay neurons
[3] = CP: Cerebellar purkinje neurons
[4] = DRG: Dorsal root ganglion neurons
[5] = CA1: CA1 pyramidal neurons or unidentified CA1 cells
[6] = ORN: Olfactory receptor neurons
[7] = MTNB: medial nucleus of the trapezoid body
[8] = SO: CA1 stratum oriens-alveus interneuron

## NCCc1c[nH]c2ccc(O)cc12 [5-HT]
[1]; [2]
  Δ V1/2: +15 mV
[1]; BSMN: Brainstem motor neurons
  Δ V1/2: +6 mV BSMN
[1]; CMN: crustacean motor neurons
  Δ IMAX: +20%
  Δ V1/2: +10 mV
[1]; [3]
  Δ V1/2: −8 mV
[1]; [4]
  Δ V1/2: +6 mV
[1]; FM: Facial motor neurons
  Δ IMAX: +25%
[1]; PH: Prepositus Hyperglossi neurons
  Δ IMAX: +30%
[1]; ST: Solitary tract neurons
  Δ IMAX: +100% ST
[1]; TR: thalamic relay
  Δ IMAX: +20%
  Δ V1/2: +5 mV
[1]; VT: Ventral tegmental neurons
  Δ V1/2: −7 m

## NCCc1c[nH]c2ccc(C(N)=O)cc12 [5CT]
[1]; [2]
  Δ V1/2: +15 mV
[1]; [5]
  Δ IMAX: +50%
  Δ V1/2: +5 mV CA1
[1]; [4]
  Δ V1/2: +6 mV

## CCCN(CCC)C1CCc2cccc(O)c2C1 (stereo not shown) [8-OH-DPAT]
[1]; ST: Solitary tract neurons
  Δ IMAX: +100% ST

## Nc1ncnc2c1ncn2[C@@H]1O[C@H](CO)[C@@H](O)[C@H]1O [Adenosine]
[1]; [4]
  Δ V1/2: −7 mV
[1]; SA: sinoatrial node
  Δ V1/2: −6 mV

## NCC(CC(=O)O)c1ccc(Cl)cc1 (stereo not shown) [Baclofen]
[1]; SNZC: Substantia nigra zona compacta
  Δ IMAX: −11%
[1]; VT: Ventral tegmental neurons
  Δ IMAX: −20%

## Clc1cccc(Cl)c1N=C1NCCN1 [Clonidine]
[1]; [4]
  Δ IMAX: HG, −40% DRG
[1]; HG: Hypoglossal motor neurons
  Δ V1/2: −4 mV HG

## COc1cc(CC(C)N)c(OC)cc1I (stereo not shown) [DOI]
[1]; [3]
  Δ V1/2: −8 mV
[1]; FM: Facial motor neurons
  Δ IMAX: +25%
[1]; VT: Ventral tegmental neurons
  Δ V1/2: −7 m

## NCCc1ccc(O)c(O)c1 [Dopamine]
[1]; [6]
  Δ IMAX: −50%
  Δ V1/2: −9 mV
[1]; PG: Pyloric ganglion motor neurons
  Δ V1/2: +20 mV PG
[1]; ROD: Rod photoreceptors
  Δ IMAX: −30% ROD
  Δ V1/2: −17 mV
[1]; VT: Ventral tegmental neurons
  Δ IMAX: −20%

## CC(C)NCC(O)c1ccc(O)c(O)c1 (stereo not shown) [Isoproterenol]
[1]; AT: atrial myocyte
  Δ IMAX: +90%
  Δ V1/2: +11 mV
[1]; BC: cerebllar basket cell
  Δ V1/2: +6 mV
[1]; ECM: Embryonic cardiomyocytes
  Δ IMAX: +65%
[1]; [7]
  Δ V1/2: +12 mV
[1]; [8]
  Δ IMAX: +30%
[1]; TR: thalamic relay
  Δ IMAX: ECM; +31% TR; BC;
  Δ V1/2: +5 mV

## OC[C@H]1O[C@@H](n2cnc3c(NC4CCCCC4)ncnc32)[C@H](O)[C@@H]1O [N6-CHA]
[1]; [4]
  Δ V1/2: −7 mV
[1]; SA: sinoatrial node
  Δ V1/2: −6 mV

## OC[C@H]1O[C@@H](n2cnc3c(NC4CCCC4)ncnc32)[C@H](O)[C@@H]1O [N6-CPA]
[1]; [4]
  Δ V1/2: −7 mV
[1]; SA: sinoatrial node
  Δ V1/2: −6 mV

## NC[C@H](O)c1ccc(O)c(O)c1 [NorE]
[1]; AT: atrial myocyte
  Δ IMAX: +90%
  Δ V1/2: +11 mV
[1]; BC: cerebllar basket cell
  Δ V1/2: +6 mV
[1]; ECM: Embryonic cardiomyocytes
  Δ IMAX: +65%
[1]; [7]
  Δ V1/2: +12 mV
[1]; [8]
  Δ IMAX: +30%
[1]; TR: thalamic relay
  Δ IMAX: ECM; +31% TR; BC;
  Δ V1/2: +5 mV

## CCCCCCCC/C=C/CCCCCCCC(=O)OCC(CO)OC(C)=O (stereo not shown) [OAG]
[1]; SNPC: Substantia nigra pars compacta
  Δ IMAX: −49% SNPC

## CCCCC[C@H](O)/C=C/[C@H]1[C@H](O)CC(=O)[C@@H]1C/C=C\CCCC(=O)O [PGE2]
[1]; NG: Nodose ganglion
  Δ IMAX: +18% NG, TG
  Δ V1/2: +6 mV NG, TG
[1]; TG: Trigeminal ganglion
  Δ IMAX: +18% NG, TG
  Δ V1/2: +6 mV NG, TG

## Nc1ncnc2c1ncn2C1CCCO1 (stereo not shown) [SQ-22536]
HCN1 channel; HCN1-R538E
  Effect on gating: not altered
HCN1 channel; wild type HCN1
  Effect on V1/2 of activation: inhibited

## C[N+](C)(C)CCOC(N)=O [carbachol]
[1]; ECM: Embryonic cardiomyocytes
  Δ IMAX: −41%
[1]; LGN
  Δ IMAX: CA1; +43% LGN
  Δ V1/2: CA1; +5 mV LGN
[1]; PF: cardiac purkinje fibre
  Δ V1/2: −8 mV SA, PF
[1]; SA: sinoatrial node
  Δ V1/2: −8 mV SA, PF

## AT-II: agonist listed for angiotensin AT½ receptor (DRVYIHPF; Angiotensin-2; UniProt P01019 25-32, looked up)
[1]; PVN: Hypothalamic paraventricular neurons
  Δ V1/2: +8m PVN

## EGF: agonist listed for EGF receptor
[1]; SA: sinoatrial node
  Δ IMAX: +23% SA

## PACAP38: agonist listed for PAC1 receptor (HSDGIFTDSYSRYRKQMAVKKYLAAVLGKRYKQRVKNK; ends and bridges not checked; UniProt P18509 132-169, looked up)
[1]; TR: thalamic relay
  Δ IMAX: +30% TR
  Δ V1/2: +7 mV TR

## Sub P: agonist listed for tachykinin NK 1/2/3 receptor (RPKPQQFFGLM; ends and bridges not checked; UniProt P20366 58-68, looked up)
[1]; NG: Nodose ganglion
  Δ V1/2: −20 mV. NG

## VIP: agonist listed for PAC1 receptor (HSDAVFTDNYTRLRKQMAVKKYLNSILN; ends and bridges not checked; UniProt P01282 125-152, looked up)
[1]; TR: thalamic relay
  Δ IMAX: +30% TR
  Δ V1/2: +7 mV TR

B1: BDNF: neurotrophin, agonist listed for TrkA/B/C, P75 (protein, UniProt P23560 19-247, looked up)
Neurotrophic factor BDNF …: APMKEANIRGQGGLAYPGVRTHGTLESVNGPKAGSRGLTSLADTFEHVIEELLDEDQKVRPNEENNKDADLYTSRVMLSSQVPLEPPLLFLLEEYKNYLDAANMSMRVRRHSDPARRGELSVCDSISEWVTAADKKTAVDMSGGTVTVLEKVPVSKGQLKQYFYETKCNPMGYTKEGCRGIDKRHWNSQCRTTQSYVRALTMDSKKRIGWRFIRIDTSCVCTLTIKRGR
[1]; PBC: Pre-botzinger complex
  Δ IMAX: −46% PBC
  Δ V1/2: −17 mV PBC
